For assay [1], the target named is Tyrosine-protein kinase CSK (Homo sapiens, UniProt P41240). Description: Inhibition of CSK ACT labeling site harbouring VSDFGLTKEASSTQDTGK in human Huh-7 cell lysate at 1 uM by KiNativ Profiling analysis relative to control. It counts as subcellular.
Assay [2] addresses Mitogen-activated protein kinase 3 (Homo sapiens) (UniProt P27361). Description: Inhibition of Erk1 Lys2 labeling site harbouring YIHSANVLHRDLKPSNLLINTTCDLK in human Huh-7 cell lysate at 1 uM by KiNativ Profiling analysis relative to control. Type of assay: subcellular.
In assay [3] the target is T1, Phosphatidylinositol 5-phosphate 4-kinase type-2 gamma (Homo sapiens) (UniProt Q8TBX8).
T1 sequence (whole entry): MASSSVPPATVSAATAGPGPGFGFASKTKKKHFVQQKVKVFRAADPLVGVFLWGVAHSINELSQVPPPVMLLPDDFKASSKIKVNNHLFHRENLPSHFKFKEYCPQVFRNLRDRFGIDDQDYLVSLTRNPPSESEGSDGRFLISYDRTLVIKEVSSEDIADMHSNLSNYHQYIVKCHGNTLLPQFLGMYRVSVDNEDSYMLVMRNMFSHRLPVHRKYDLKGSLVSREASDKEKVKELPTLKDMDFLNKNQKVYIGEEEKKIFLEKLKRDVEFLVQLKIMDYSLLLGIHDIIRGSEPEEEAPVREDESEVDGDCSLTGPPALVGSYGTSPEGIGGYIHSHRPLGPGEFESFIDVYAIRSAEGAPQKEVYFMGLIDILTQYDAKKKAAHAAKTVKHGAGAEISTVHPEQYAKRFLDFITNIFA
Description: Inhibition of PIP4K2C ATP labeling site harbouring TLVIKEVSSEDIADMHSNLSNYHQYIVK in human Huh-7 cell lysate at 1 uM by KiNativ Profiling analysis relative to control. It counts as subcellular.

Assay [4] deals with Calcium/calmodulin-dependent protein kinase type II subunit delta (Homo sapiens) (UniProt Q13557). Kind of assay: Inhibition of CaMK2d Lys1 labeling site harbouring IPTGQEYAAKIINTK in human Huh-7 cells at 1 uM by KiNativ Profiling analysis relative to control. It counts as cell-based.
Assay [5] has as its target Cyclin-dependent kinase 1 (Homo sapiens) (UniProt P06493). Description: Inhibition of CDC2 Lys1 labeling site in human Huh-7 cells at 1 uM by KiNativ Profiling analysis relative to control. Type of assay: cell-based.
For assay [6], the target named is Serine/threonine-protein kinase 10 (Homo sapiens) (UniProt O94804). Description: Inhibition of LOK Lys2 labeling site in human Huh-7 cells at 1 uM by KiNativ Profiling analysis relative to control. It counts as cell-based.
Chain of Serine/threonine-protein kinase 10 (Homo sapiens) (O94804 whole entry, looked up, the tested form may be a part): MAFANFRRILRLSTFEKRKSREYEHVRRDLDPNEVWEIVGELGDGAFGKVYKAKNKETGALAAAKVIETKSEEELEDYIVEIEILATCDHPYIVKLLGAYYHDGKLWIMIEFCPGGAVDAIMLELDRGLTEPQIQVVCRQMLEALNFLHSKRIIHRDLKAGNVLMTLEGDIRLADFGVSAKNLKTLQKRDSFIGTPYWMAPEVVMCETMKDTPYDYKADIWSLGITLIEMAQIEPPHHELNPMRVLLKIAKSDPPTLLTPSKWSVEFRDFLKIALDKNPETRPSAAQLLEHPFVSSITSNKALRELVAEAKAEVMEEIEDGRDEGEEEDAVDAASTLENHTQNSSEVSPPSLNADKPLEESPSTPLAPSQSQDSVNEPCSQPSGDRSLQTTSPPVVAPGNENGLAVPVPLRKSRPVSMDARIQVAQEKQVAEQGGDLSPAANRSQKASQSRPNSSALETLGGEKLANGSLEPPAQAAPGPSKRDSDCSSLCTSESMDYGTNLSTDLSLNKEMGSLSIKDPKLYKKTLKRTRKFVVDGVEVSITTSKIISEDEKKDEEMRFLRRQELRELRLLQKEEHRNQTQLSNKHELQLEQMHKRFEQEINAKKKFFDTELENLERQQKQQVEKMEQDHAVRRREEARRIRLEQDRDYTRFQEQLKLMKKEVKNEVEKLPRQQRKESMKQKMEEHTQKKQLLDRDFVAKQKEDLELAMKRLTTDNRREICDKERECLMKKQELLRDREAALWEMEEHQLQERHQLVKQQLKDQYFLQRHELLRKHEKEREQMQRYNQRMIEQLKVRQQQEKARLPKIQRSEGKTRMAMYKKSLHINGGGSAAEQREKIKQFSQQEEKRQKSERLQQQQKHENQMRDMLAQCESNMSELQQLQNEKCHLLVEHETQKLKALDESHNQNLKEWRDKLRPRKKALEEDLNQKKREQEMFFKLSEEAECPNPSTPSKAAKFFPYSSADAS
Assay [7] addresses Tyrosine-protein kinase JAK3 (Homo sapiens) (UniProt P52333). Kind of assay: Inhibition of JAK3 JH1 catalytic domain (unknown origin) at 1 uM by Ambit Kinomescan binding assay relative to control.
The target of assay [8] is Hormonally up-regulated neu tumor-associated kinase (Homo sapiens) (UniProt P57058). Kind of assay: Inhibition of HUNK (unknown origin) at 1 uM by Ambit Kinomescan binding assay relative to control; values are per cent of control.
Assay [9] concerns the target Activin receptor type-1-like (Homo sapiens) (UniProt P37023). Kind of assay: Inhibition of ACVRL1 (unknown origin) at 10 uM by Ambit Kinomescan binding assay.
For assay [10], the target named is Tyrosine-protein kinase JAK1 (Homo sapiens) (UniProt P23458). Kind of assay: Inhibition of JAK1 JH1 catalytic domain (unknown origin) at 10 uM by Ambit Kinomescan binding assay relative to control.
Chain of Tyrosine-protein kinase JAK1 (Homo sapiens) (P23458 whole entry, the tested form may be a part): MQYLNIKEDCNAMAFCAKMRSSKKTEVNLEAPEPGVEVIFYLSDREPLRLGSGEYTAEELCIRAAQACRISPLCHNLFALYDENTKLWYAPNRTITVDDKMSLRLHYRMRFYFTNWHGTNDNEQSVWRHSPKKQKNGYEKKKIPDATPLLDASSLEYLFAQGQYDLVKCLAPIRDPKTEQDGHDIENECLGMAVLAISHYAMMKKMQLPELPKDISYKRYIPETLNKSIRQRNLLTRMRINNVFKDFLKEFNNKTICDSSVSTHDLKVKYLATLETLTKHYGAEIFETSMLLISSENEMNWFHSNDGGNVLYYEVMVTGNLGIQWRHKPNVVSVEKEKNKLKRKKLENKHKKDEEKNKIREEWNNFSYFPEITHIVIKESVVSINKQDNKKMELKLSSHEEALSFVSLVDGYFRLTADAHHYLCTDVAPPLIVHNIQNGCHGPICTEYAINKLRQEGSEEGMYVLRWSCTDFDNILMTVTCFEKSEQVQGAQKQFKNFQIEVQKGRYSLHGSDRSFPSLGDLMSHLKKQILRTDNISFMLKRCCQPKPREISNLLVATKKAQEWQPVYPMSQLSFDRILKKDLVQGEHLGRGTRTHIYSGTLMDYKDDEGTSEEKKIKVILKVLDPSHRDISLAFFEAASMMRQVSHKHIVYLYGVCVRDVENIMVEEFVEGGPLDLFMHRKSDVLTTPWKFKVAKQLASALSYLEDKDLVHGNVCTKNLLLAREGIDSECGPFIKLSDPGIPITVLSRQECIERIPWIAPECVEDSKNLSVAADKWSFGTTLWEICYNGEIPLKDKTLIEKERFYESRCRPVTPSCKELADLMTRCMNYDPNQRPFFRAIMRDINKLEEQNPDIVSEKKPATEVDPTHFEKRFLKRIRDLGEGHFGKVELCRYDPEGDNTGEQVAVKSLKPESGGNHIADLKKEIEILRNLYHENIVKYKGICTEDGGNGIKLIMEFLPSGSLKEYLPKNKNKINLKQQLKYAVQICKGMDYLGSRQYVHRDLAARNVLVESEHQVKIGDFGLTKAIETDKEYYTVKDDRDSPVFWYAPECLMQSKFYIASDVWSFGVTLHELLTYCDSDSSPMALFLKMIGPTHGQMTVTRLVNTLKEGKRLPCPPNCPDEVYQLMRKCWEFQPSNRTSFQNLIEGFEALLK
Assay [11] addresses MAP/microtubule affinity-regulating kinase 3 (Homo sapiens) (UniProt P27448). Kind of assay: Inhibition of MARK3 (unknown origin) at 10 uM by Ambit Kinomescan binding assay.
In assay [12] the target is Serine/threonine-protein kinase RIO3 (Homo sapiens) (UniProt O14730). Description: Inhibition of RIOK3 (unknown origin) at 10 uM by Ambit Kinomescan binding assay.
Assay [13] has as its target Uncharacterized serine/threonine-protein kinase SBK3 (Homo sapiens) (UniProt P0C264). Kind of assay: Inhibition of SgK110 (unknown origin) at 10 uM by Ambit Kinomescan binding assay.
The target of assay [14] is T2, Mitogen-activated protein kinase kinase kinase kinase 2 (Homo sapiens) (UniProt Q12851).
T2 sequence (whole entry): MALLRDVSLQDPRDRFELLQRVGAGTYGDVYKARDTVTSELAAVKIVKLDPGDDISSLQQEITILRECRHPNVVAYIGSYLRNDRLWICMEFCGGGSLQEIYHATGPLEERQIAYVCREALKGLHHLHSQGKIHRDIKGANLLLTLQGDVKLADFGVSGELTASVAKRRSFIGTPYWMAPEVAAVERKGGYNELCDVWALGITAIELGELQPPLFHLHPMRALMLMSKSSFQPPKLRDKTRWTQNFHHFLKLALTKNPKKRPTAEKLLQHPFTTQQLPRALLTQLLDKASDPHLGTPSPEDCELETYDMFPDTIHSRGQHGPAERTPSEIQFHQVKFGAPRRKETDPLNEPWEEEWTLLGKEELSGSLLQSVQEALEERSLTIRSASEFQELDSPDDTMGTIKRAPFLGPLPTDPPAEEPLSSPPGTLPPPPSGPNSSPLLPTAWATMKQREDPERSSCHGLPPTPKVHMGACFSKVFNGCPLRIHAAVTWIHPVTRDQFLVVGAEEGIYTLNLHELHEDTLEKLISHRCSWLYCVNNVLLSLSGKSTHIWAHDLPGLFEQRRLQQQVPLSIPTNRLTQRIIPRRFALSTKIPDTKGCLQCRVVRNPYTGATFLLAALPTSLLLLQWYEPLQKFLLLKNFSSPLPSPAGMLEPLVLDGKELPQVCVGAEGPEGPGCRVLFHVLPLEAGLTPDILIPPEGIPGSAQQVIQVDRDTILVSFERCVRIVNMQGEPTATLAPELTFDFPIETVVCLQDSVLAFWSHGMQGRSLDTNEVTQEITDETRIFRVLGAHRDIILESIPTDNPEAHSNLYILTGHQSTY
Description: Inhibition of MAP4K2 (GCK) Lys2 labeling site in human A-375 cells at 5 uM by KiNativ Profiling analysis relative to control. Type of assay: cell-based.

For assay [15], the target named is T2, Mitogen-activated protein kinase kinase kinase kinase 2 (Homo sapiens). Description: Inhibition of MAP4K2 (GCK) Lys1 labeling site in human A-375 cells at 0.05 uM by KiNativ Profiling analysis relative to control. It counts as cell-based.
Assay [16] addresses AMPK alpha1/alpha2 (Homo sapiens) (UniProt P54646+Q13131). Description: Inhibition of AMPK alpha 1/2 K1 labeling site in human Huh-7 cells at 1 uM by KiNativ Profiling analysis relative to control. Type of assay: cell-based.
Assay [17] concerns the target Vascular endothelial growth factor receptor 2 (Homo sapiens) (UniProt P35968). Kind of assay: Inhibition of VEGFR2 (unknown origin) at 10 uM by Ambit Kinomescan binding assay relative to control; values are per cent of control.
The subject of assay [18] is Proto-oncogene tyrosine-protein kinase receptor Ret (Homo sapiens), P07949 [V804M]. Kind of assay: Inhibition of RET V804M mutant (unknown origin) at 10 uM by Ambit Kinomescan binding assay relative to control; values are per cent of control.

Activity calls are given as the source filed them. The calls are words filed in the database; no cut-off is given here.

Chain of Vascular endothelial growth factor receptor 2 (Homo sapiens) (P35968 whole entry): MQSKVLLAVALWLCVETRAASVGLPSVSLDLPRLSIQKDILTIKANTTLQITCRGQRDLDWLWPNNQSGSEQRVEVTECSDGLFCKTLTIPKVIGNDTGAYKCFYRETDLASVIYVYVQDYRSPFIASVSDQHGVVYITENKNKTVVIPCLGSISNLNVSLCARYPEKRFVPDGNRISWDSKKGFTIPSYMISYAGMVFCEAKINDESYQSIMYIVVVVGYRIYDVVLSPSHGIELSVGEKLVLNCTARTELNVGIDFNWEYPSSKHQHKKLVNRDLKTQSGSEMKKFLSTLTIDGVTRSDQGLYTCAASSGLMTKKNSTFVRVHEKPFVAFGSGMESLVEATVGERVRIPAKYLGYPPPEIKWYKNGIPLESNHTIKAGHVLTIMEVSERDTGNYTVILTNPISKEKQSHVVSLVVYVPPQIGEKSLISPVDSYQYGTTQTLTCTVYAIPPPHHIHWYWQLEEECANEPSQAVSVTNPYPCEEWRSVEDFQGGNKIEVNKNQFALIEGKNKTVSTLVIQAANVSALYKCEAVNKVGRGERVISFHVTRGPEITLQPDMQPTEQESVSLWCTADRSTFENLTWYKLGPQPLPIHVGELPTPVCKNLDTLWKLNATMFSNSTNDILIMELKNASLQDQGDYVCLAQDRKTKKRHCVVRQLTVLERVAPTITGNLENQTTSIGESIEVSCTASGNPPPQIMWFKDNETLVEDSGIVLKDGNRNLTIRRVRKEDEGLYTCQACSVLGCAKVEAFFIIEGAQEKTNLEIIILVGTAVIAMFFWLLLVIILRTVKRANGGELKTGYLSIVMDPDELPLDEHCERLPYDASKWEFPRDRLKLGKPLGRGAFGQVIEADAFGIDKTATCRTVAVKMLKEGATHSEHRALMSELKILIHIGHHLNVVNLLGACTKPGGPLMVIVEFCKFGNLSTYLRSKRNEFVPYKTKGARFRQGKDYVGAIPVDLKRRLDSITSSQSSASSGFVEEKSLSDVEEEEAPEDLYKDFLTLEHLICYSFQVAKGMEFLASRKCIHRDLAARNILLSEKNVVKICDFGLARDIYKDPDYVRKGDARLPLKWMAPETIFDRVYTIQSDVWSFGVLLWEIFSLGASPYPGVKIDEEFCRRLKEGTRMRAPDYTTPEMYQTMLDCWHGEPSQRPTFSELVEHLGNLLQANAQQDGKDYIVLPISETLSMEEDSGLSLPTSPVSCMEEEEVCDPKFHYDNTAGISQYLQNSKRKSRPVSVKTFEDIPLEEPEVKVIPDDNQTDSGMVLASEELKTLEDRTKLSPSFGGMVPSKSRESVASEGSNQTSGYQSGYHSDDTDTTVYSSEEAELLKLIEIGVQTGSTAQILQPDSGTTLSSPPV
Chain of Uncharacterized serine/threonine-protein kinase SBK3 (Homo sapiens) (P0C264 whole entry): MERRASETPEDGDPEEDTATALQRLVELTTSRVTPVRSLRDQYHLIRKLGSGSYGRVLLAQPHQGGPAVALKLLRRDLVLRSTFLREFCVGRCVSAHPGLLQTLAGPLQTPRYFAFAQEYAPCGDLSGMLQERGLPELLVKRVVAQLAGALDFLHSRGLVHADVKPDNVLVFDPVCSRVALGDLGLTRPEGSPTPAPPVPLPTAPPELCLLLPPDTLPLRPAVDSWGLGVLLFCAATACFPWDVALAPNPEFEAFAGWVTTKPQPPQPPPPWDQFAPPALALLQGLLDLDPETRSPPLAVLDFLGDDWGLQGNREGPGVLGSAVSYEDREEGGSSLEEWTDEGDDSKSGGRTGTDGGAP
Chain of Mitogen-activated protein kinase 3 (Homo sapiens) (P27361 whole entry): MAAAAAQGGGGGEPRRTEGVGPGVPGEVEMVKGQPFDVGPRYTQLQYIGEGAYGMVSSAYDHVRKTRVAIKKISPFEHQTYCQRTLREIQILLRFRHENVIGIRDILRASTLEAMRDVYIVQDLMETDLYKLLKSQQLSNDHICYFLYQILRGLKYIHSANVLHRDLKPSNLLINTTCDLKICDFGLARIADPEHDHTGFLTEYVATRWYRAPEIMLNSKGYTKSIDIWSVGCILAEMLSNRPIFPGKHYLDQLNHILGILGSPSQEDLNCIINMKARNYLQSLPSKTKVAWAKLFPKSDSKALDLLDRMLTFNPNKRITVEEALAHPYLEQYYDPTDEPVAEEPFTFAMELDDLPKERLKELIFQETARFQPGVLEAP
Chain of MAP/microtubule affinity-regulating kinase 3 (Homo sapiens) (P27448 whole entry, looked up): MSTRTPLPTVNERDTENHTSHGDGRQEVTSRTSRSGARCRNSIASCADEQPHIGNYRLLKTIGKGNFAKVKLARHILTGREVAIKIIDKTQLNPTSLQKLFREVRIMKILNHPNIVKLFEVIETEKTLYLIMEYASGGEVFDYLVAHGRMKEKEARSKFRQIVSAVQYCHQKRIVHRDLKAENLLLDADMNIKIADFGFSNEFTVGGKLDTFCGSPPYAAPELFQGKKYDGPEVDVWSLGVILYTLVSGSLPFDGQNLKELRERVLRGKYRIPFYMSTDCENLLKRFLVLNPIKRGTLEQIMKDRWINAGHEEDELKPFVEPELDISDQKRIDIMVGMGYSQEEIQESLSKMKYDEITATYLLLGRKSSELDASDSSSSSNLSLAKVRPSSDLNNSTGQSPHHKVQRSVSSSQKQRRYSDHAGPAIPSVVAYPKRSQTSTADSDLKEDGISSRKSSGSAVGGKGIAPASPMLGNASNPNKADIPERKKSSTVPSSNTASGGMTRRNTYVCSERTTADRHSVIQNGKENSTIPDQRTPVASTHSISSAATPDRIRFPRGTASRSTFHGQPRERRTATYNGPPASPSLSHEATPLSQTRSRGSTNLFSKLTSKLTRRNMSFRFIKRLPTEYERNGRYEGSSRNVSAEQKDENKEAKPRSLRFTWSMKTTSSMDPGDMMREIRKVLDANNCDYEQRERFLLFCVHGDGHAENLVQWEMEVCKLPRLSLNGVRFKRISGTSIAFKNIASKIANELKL

Take `CNc1cc(Oc2cc(C(=O)Nc3cc(N4CCN(C)CC4)cc(C(F)(F)F)c3)ccc2C)ncn1`: the inhibition in assay [1] is 7.9%; in assay [2], 20.7%; in assay [3], -3.6%; in assay [4], 9.1%; in [5], 8.9%; in assay [6], 19%.
As for `CCN1CCN(Cc2ccc(NC(=O)c3ccc(C)c(/C=C/c4cnc5[nH]ccc5c4OC)c3)cc2C(F)(F)F)CC1`, the inhibition in [7] was determined as 55%. In assay [8], this compound displayed a residual activity of 57%.
Consider `CCN1CCN(Cc2ccc(NC(=O)c3ccc(C)c(Oc4ccnc5[nH]ccc45)c3)cc2C(F)(F)F)CC1`, for which the inhibition result in [9], in assay [11], in assay [12] and in assay [13] was “inactive” in each case. The inhibition in assay [10] was determined as 11%; in assay [14] it was 96.6%; in [15], 98.2%; in assay [16], 29.8%. Besides, the residual activity in assay [17] is 1.5%; in assay [18], 1%.

In general, inhibition refers to the change of the read-out against control, counted positive when it falls. The term residual activity denotes the share of the control activity or signal that is left under treatment. Low readings indicate a large loss of activity, high ones a small loss of activity.
